According to US7879835B2 (Korea Research Institute of Chemical Technology, priority 2004, dated 2011):

Key:
[1] = system: osteoclast (TRAP-positive multinuclear cell) formation; assay: Inhibitory effect on osteoclast formation (TRAP staining); assay type: cell-based, mice; conditions: 8 days culture with M-CSF and RANKL, compared to control
How it was run: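 Non-adherent bone marrow cells from 7–9-week-old female mice, 2×10^5 per well, cultured 8 days with M-CSF (20 ng/ml), RANKL (30 ng/ml) and compound at 0.3, 1.0 or 3 μM. Formation scored by TRAP staining after fixation, 1 h at 37 °C, pH 5.0.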

osteoclasts = assay: Inhibitory effect on resorption activity of osteoclast (resorption pit area on calcium phosphate-coated plate); assay type: cell-based, mice; conditions: compared to control
Procedure: After finishing culture, the plate was washed with distilled water, and 50 μl/well of 5% sodium hypochlorite was added to the plate. The plate was let alone for 5 min, washed again with distilled water to remove the adherent cells, and dried at room temperature. Then, the area of formed resorption pits was calculated by means of Image Pro Plus software (Media Cybernetics Ver. 3.0).

[2] = system: osteoclast pregenitor cells; assay: Cytotoxicity against osteoclast pregenitor (MTT); assay type: cell-based, mice; conditions: 48 hrs, absorbance at 550 nm
Procedure: In order examine the toxicities of the compounds of the Examples against osteoclast pregenitors, pregenitor cells were aliquotted onto a 96-well microplate at a density of 2×10^5 cells per well, treated with 2, 4 and 8 μM of the test compounds, respectively, and cultured for 48 hrs in α-MEM supplemented with 20 ng/ml of M-CSF (Peprotech, USA) using 37° C. incubator (5% CO2). At 3 hrs before the culture was finished, 50 μl of MTT (3-(4,5-dimethylthiazol-2-yl)-2,5-diphenyltetrazolium bromide) solution (50 μg/ml) was added to each well. Upon completion of the cell culture, the supernatant was removed, and the precipitated dye was reacted with 100 μl of isopropanol/0.04 N HCl at room temperature for 30 min to dissolve it. The absorbances of the wells were measured at 550 nm, and the relative absorbance of each well relative to that of the control (set as 100) is shown in Table 6.

MG-63 cells = assay: Cytotoxicity test against osteoblast (MTT); assay type: cell-based, human
How it was run: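 MG-63 human osteosarcoma cells exposed to 0.1, 0.3, 1.0 and 3.0 μM compound in DMEM with 10% FBS. Osteoclast progenitors in the same text were run at 2, 4 and 8 μM, 48 h, α-MEM + 20 ng/ml M-CSF, 37 °C; MTT added 3 h before end, A550 as % of control.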

[3] = In vitro pharmacokinetics: metabolic stability in liver microsome; assay type: in vitro ADME; conditions: human liver microsome 1 mg/ml, 20 μM compound
Procedure: Metabolic stabilities of the compounds of the Examples were examined by employing microsome samples prepared from the human liver.
Each 20 μM of the compounds were reacted with 1 mg/ml of liver microsome and the half-lives and one-hour stabilities of the compounds were determined.

rats = assay: In vivo acute toxicity test (LD50); conditions: single dose, 2 weeks observation
Procedure: In order to determine the acute toxicities of the compounds prepared in Examples, 6-week old specific pathogen-free (SPF) rats each weighing […] were divided into groups of 10 rat each.
In case of subcutaneous administration, each of the compounds was dissolved in 5% PEG400 solution to a concentration of 20 mg/ml, the resulting solution was serially diluted with 5% PEG400 solution to concentrations of 5, 2.5, 1.25 and 0.625 mg/ml, and the dilutions were subcutaneously injected once to the rats at a dose of 10 ml/kg body weight.
In case of oral administration, each of the compounds was dissolved in soybean oil to a concentration of 180 mg/ml, the resulting solution was serially diluted with soybean oil to concentrations of 80, 20 and 5 mg/ml, and the dilutions were orally administered once to the rats at a dose of 20 ml/kg body weight. […]
During 2 weeks after the administration of the compounds, the death rate, clinical symptoms and weight changes of the rats were observed, and hematological and biochemical tests on blood samples were performed. Then, the rats were sacrificed and the internal organs were visually examined to check any abnormal signs in the organs of chest and abdomen.

[4] = In vivo pharmacokinetics using female mice (serum concentration, HPLC)
Procedure: Female mice each weighing […] were divided into groups of 5 mice each. The mice were anesthetized with ether, catheterized in their femoral artery and vein, respectively, and administered with 0.5 mg/kg body weight of compounds 234 and 274, and 5 mg/kg body weight of compounds 388, 404 and 415, respectively, via intravenous injection. Alternatively, 15 mg/kg body weight of compound 274 and 10 mg/kg body weight of compound 234 were orally administered to the mice.
At 0, 5, 10, 15 and 30 minutes and 1, 2, 4, 6, 9 and 12 hours after the intravenous injection, or at 0, 10, 20 and 40 minutes and 1, 2, 4, 6, 9 and 12 hours after the oral administration, 0.3 ml blood samples were taken from the mice through femoral artery. The blood samples were kept on an ice bath for 30 minutes and centrifuged at 3,000 rpm for 10 minutes to obtain a supernatant (serum). The supernatant samples were stored at −20° C.
Standard solution: Compounds 234, 274, 388, 404 and 415 were respectively dissolved in methanol to a concentration of 1 mg/ml to obtain stock solutions. The stock solutions were diluted with methanol to obtain standard solutions having concentrations of 40, 20, 10, 2, 1, 0.5, 0.2, 0.05 and 0.02 μg/ml, respectively.
Standard calibration curve: A stand calibration curve was prepared by employing calibration concentrations of 0.002, 0.005, 0.02, 0.05, 0.1, 0.2, 1, 2 and 4 μg/ml.
10 μl each of the standard solutions prepared above was added to 100 μl of normal serum sample and diluted 10 times. 250 μl of acetonitrile was added to the resulting dilution and the mixture was centrifuged for 10 minutes to obtain a supernatant. 300 μl of the supernatant was dried by evaporation under a nitrogen atmosphere and reconstituted by adding 50 μl of methanol. 20 μl of the resulting solution was analyzed by HPLC to prepare a standard calibration curve. HPLC was performed with Shimadzu ODS2 column (4.6×250 mm, 5 μm by employing a mixture of methanol/water (90/10 (v/v)) as the mobile phase at a flow rate of 1.2 ml/min, and measuring the absorbance at 240 nm.
Extraction: 100 μl of the serum sample obtained in (4-2-1) was put into a 1 ml microtube and 10 μl of methanol was added thereto. 250 μl of acetonitrile was added to the microtube and the mixture was centrifuged for 10 minutes to obtain a supernatant. 300 μl of the supernatant was dried by evaporation under a nitrogen atmosphere and reconstituted by adding 50 μl of methanol. 20 μl of the resulting solution was analyzed by the HPLC method as above.
Average concentrations of the compounds in the serum samples were plotted in a semi-log scale against the time lapsed after the administration, and the pharmacokinetic parameters were determined as a non-compartment open model by employing WinNonlin® program (Pharsight Corporation).

Row | SMILES | Osteoclast formation inhibitory effects (%) ([1]; 0.3 μM) | Osteoclast formation inhibitory effects (%) ([1]; 1.0 μM) | Osteoclast formation inhibitory effects (%) ([1]; 3.0 μM) | Reduction (%) of the resorption pit area of osteoclasts (osteoclasts; 0.3 uM) [%] | Reduction (%) of the resorption pit area of osteoclasts (osteoclasts; 1 uM) [%] | Reduction (%) of the resorption pit area of osteoclasts (osteoclasts; 3 uM) [%] | relative absorbance relative to that of the control (set as 100), MTT (MG-63 cells; 0.11 uM) | relative absorbance relative to that of the control (set as 100), MTT (MG-63 cells; 0.33 uM) | relative absorbance relative to that of the control (set as 100), MTT (MG-63 cells; 1 uM) | relative absorbance relative to that of the control (set as 100), MTT (MG-63 cells; 3 uM) | Half-life [3] [h] | One-hour stability [3] [%] | LD50 (rats; PO) | LD50 (rats; SC) [mg/kg body weight] | also measured
1 | C=CCOc1cccc(OCc2ccccc2/C(=C\OC)C(=O)OC)c1 [compound 211] | 23 | 96 | 100 | 96 | 100 | 100 | 103 | 101 | 105 | 106 | 1.77 | 60 | 500 mg/kg body weight | 51 | relative absorbance relative to that of the control (set as 100), MTT ([2]; 2 uM): 88; relative absorbance relative to that of the control (set as 100), MTT ([2]; 4 uM): 103; relative absorbance relative to that of the control (set as 100), MTT ([2]; 8 uM): 103
2 | CO/C=C(/C(=O)OC)c1ccccc1COc1cccc(OCCN2CCOCC2)c1 [compound 234] | 25 | 100 | 100 | 95 | 100 | 100 |  | 98 | 115 | 97 | >3 | 83 | 100-300 mg/kg body weight | 7 | AUC (area under the curve of blood concentration versus time) ([4]; I.V.): 477.6 ± 96.4 µg·h/mL; CL (clearance) ([4]; I.V.): 1.1 ± 0.2 mL/h; Half-life ([4]; I.V.): 10.6 ± 4.8 h; Vd (volume of distribution) ([4]; I.V.): 0.0152 ± 0.0052 L/kg; AUC (area under the curve of blood concentration versus time) ([4]; Oral): 680.4 ± 426.2 µg·h/mL; CL (clearance) ([4]; Oral): 19.5 ± 10.6 mL/h; Half-life ([4]; Oral): 12.8 ± 7.7 h; Vd (volume of distribution) ([4]; Oral): 0.3544 ± 0.2456 L/kg; bioavailability ([4]; oral versus I.V.): 35.4%
3 | C=CCOc1ccc(OCc2cc(Cl)ccc2/C(=C\OC)C(=O)OC)cc1 [compound 264] | 98 | 100 | 100 | 100 | 100 | 100 | 103 | 107 | 104 | 92 | >3 | 80 | 269 mg/kg body weight | 25 | 
